In this experiment the test system is collagen production induced by TGF-β (NHDF cells). The experiment is described as follows: Inhibitory effect on collagen production induced by TGF-β, [3H] proline uptake (NHDF cells). In kind it is cell-based, human. The note with it: TGF-β1 3 ng/ml; for inhibition at 1 µM / inhibition at 3 µM / inhibition at 10 µM: Homo sapiens, NHDF. As to the method: As an index of collagen production, the uptake of [^3H] proline was measured.
Using a 96-well microplate, normal human skin derived fibroblast (NHDF, 10^4/well) or human embryonic lung fibroblast (TIG-3, 10^4/well) were cultured in a 10% fetal calf serum (FCS)-containing Dulbecco's modified Eagle medium (DMEM) for one day. After removing the culture supernatant, the cells were washed once with a 0.1% bovine serum albumin (BSA)-containing DMEM medium and then cultured in the 0.1% bovine serum albumin (BSA)-containing DMEM medium for one day. After adding each of the test compounds in each concentration (1, 3, 10 μM), the cells were cultured and, after adding TGF-β1 (3 ng/ml) and [^3H] proline (18.5 kBq/well), the cells were further cultured for additional one day.
After removing the culture supernatant, the cells were washed twice with a phosphate buffer solution (PBS) and dissolved with 0.3M NaOH and 1% sodium dodecylsulfate (SDS), and then each protein fraction was precipitated with trichloroacetic acid (TCA) After the precipitate was filtered through a glass filter (GF/B) and washed, the quantity of [^3H] proline on the glass filter was measured by a liquid scintillation counter. The number of cells was measured by a cell growth measuring kit (XTT, Roche) and the uptake of [^3H] proline was corrected by the number of cells. Inhibitory ratio was calculated as compared with the case where a difference between the uptake of [^3H] proline with or without TGF-β1.

The structures appear in SMILES notation. Structures can show the parent of a compound that is named as a salt.

As a reminder, the inhibition is the relative decrease from the control value, in per cent. `Cn1c(-c2ccccc2)c(/C=C/C(=O)NCC2CN(Cc3ccc(F)cc3)CCO2)c2ccccc21` (stereo not shown) [Example 30, (2E)-N-{[4-(4-fluorobenzyl)morpholin-2-yl]methyl}-3-(1-methyl-2-phenyl-1H-indol-3-yl)acrylamide hydrochloride]: the inhibition at 1 µM (1 μM) was determined as 41%. The inhibition at 3 µM (3 μM) came to 94%. Further, where the note is “10 μM”, the inhibition at 10 µM is 148%.
`Cn1c(-c2ccccc2)c(/C=C/C(=O)N[C@@H]2c3ccccc3C[C@@H]2O)c2cc3c(cc21)OCO3` [Example 97, (2E)-N-[(1R, 2S)-2-hydroxy-2,3-dihydro-1H-inden-1-yl]-3-(1-methyl-2-phenyl-5,6-methylenedioxy-1H-indol-3-yl)acrylamide]: the inhibition at 1 µM (1 μM) is 37%. The inhibition at 3 µM (3 μM) turned out to be 69%.
As for `COc1ccc(N2CCN(C(=O)/C=C/c3c(-c4ccccc4)n(C)c4ncccc34)CC2)cc1` [Example 98, 1-[(2E)-3-(1-methyl-2-phenyl-1H-pyrrolo[2,3-b]pyridin-3-yl)prop-2-enoyl]-4-(4-methoxyphenyl)piperazine], the inhibition at 1 µM (1 μM) turned out to be 47%. Also, the inhibition at 3 µM (3 μM) came out at 92%.
As for `COc1cc2c(cc1OC)CN(C(=O)/C=C/c1c(-c3ccccc3)n(C)c3ncccc13)CC2` [Example 109, 2-[(2E)-3-(1-methyl-2-phenyl-1H-pyrrolo[2,3-b]pyridin-3-yl)prop-2-enoyl]-6,7-dimethoxy-1,2,3,4-tetrahydroisoquinoline hydrochloride], the inhibition at 1 µM (1 μM) was 50%. Also, where the note is “3 μM”, the inhibition at 3 µM worked out at 76%. The inhibition at 10 µM (10 μM) was 135%.
With `CN(CCC(O)c1ccccc1)C(=O)/C=C/c1c(-c2ccc(F)cc2)n(C)c2ccccc12` (stereo not shown) [Example 110, (2E)-N-methyl-N-(3-hydroxy-3-phenylpropyl)-3-[1-methyl-2-(4-fluorophenyl)-1H-indol-3-yl]acrylamide], the inhibition at 3 µM (3 μM) came to 66%. For the same compound, the inhibition at 10 µM (10 μM) is 143%.
The corresponding values for `COc1cccc2c(/C=C/C(=O)N(C)CCC(O)c3ccccc3)c(-c3ccccc3)n(C)c12` (stereo not shown) [Example 111, (2E)-N-methyl-N-(3-hydroxy-3-phenylpropyl)-3-(1-methyl-2-phenyl-7-methoxy-1H-indol-3-yl)acrylamide] are 82% and 168%.
On to `CN(CCC(O)c1ccccc1)C(=O)/C=C/c1c(-c2ccc3c(c2)OCO3)n(C)c2ccccc12` (stereo not shown) [Example 112, (2E)-N-methyl-N-(3-hydroxy-3-phenylpropyl)-3-[1-methyl-2-(3,4-methylenedioxyphenyl)-1H-indol-3-yl]acrylamide], for which the inhibition at 3 µM (3 μM) was determined as 73%. In addition, the inhibition at 10 µM (10 μM) is 143%.
The corresponding values for `Cn1c(-c2ccc3c(c2)OCO3)c(/C=C/C(=O)N[C@@H]2c3ccccc3C[C@@H]2O)c2ccccc21` [Example 113, (2E)-N-[(1R,2S)-2-hydroxy-2,3-dihydro-1H-inden-1-yl]-3-[1-methyl-2-(3,4-methylenedioxyphenyl)-1H-indol-3-yl]acrylamide] are 88% and 148%.
The corresponding values for `CC1c2cc(O)c(O)cc2CCN1C(=O)/C=C/c1c(-c2ccc3c(c2)OCO3)n(C)c2ccccc12` (stereo not shown) [Example 114, 2-{(2E)-3-[1-methyl-2-(3,4-methylenedioxyphenyl)-1H-indol-3-yl]prop-2-enoyl}-1-methyl-6,7-dihydroxy-1,2,3,4-tetrahydroisoquinoline] are 94% and 165%.
The corresponding values for `COc1ccc(CCN(C)C(=O)/C=C/c2c(-c3ccc4c(c3)OCO4)n(C)c3ccccc23)cc1OC` [Example 115, (2E)-N-methyl-N-[2-(3,4-dimethoxyphenyl)ethyl]-3-[1-methyl-2-(3,4-methylenedioxyphenyl)-1H-indol-3-yl]acrylamide] are 84% and 155%.
For the compound `Cn1c(-c2ccc3c(c2)OCO3)c(/C=C/C(=O)N(CCCCO)Cc2ccccc2)c2ccccc21` [Example 116, (2E)-N-(4-hydroxybutyl)-N-benzyl-3-[1-methyl-2-(3,4-methylenedioxyphenyl)-1H-indol-3-yl]acrylamide], the inhibition at 3 µM (3 μM) stood at 76%. Moreover, for the setting “10 μM”, the inhibition at 10 µM amounted to 168%.
As to `CC1c2cc(O)c(O)cc2CCN1C(=O)/C=C/c1c(-c2ccccc2)n(C)c2cc3c(cc12)OCO3` (stereo not shown) [Example 117, 2-{(2E)-3-[1-methyl-2-phenyl-(5,6-methylenedioxy)-1H-indol-3-yl]prop-2-enoyl}-1-methyl-6,7-dihydroxy-1,2,3,4-tetrahydroisoquinoline], the “Inhibitory effect on collagen production induced by TGF-β (% inhibition)” value (shortened to “Inhibitory effect … (% inhibition)”) (3 μM) is 82% and the “Inhibitory effect … (% inhibition)” value (10 μM) was 140%.
Turning to `COc1cccc(-c2c(/C=C/C(=O)N(C)CCC(O)c3ccccc3)c3ccccc3n2C)c1` (stereo not shown) [Example 118, (2E)-N-methyl-N-(3-hydroxy-3-phenylpropyl)-3-[1-methyl-2-(3-methoxyphenyl)-1H-indol-3-yl]acrylamide], the inhibition at 3 µM (3 μM) came to 81%. The inhibition at 10 µM (10 μM) was 147%.
On to `COc1ccc(-c2c(/C=C/C(=O)N(C)CCC(O)c3ccccc3)c3ccccc3n2C)cc1` (stereo not shown) [Example 119, (2E)-N-methyl-N-(3-hydroxy-3-phenylpropyl)-3-[1-methyl-2-(4-methoxyphenyl)-1H-indol-3-yl]acrylamide], for which, for the setting “3 μM”, the inhibition at 3 µM came to 75%. The inhibition at 10 µM (10 μM) worked out at 153%.
For `CN1CCC(N(C)C(=O)/C=C/c2c(-c3ccccc3)n(C)c3ncccc23)CC1` [Example 122, (2E)-N-methyl-N-(1-methyl-piperidin-4-yl)-3-(1-methyl-2-phenyl-1H-pyrrolo[2,3-b]pyridin-3-yl)acrylamide], the inhibition at 1 µM (1 μM) came to 20%. In addition, for the setting “3 μM”, the inhibition at 3 µM was found to be 57%.
For the compound `COc1cc2c(cc1OC)CN(C(=O)/C=C/c1c(-c3ccccc3)n(C)c3ncc(C)cc13)CC2` [Example 123, 2-[(2E)-3-(1,5-dimethyl-2-phenyl-1H-pyrrolo[2,3-b]pyridin-3-yl)prop-2-enoyl]-6,7-dimethoxy-1,2,3,4-tetrahydroisoquinoline hydrochloride], the inhibition at 1 µM (1 μM) amounted to 55%. Moreover, the inhibition at 3 µM (3 μM) stood at 125%.
As to `COc1cc2c(cc1OC)C(CC(=O)O)N(C(=O)/C=C/c1c(-c3ccccc3)n(C)c3ncccc13)CC2` (stereo not shown) [Example 124, {6,7-dimethoxy-2-[(2E)-3-(1-methyl-2-phenyl-1H-pyrrolo[2,3-b]pyridin-3-yl)prop-2-enoyl]-1,2,3,4-tetrahydroisoquinolin-1-yl}acetic acid], where the note is “1 μM”, the “Inhibitory effect … (% inhibition)” value was determined as 21%. Also, where the note is “3 μM”, the inhibition at 3 µM stood at 108%.
In the case of `CC(=O)OCCN(Cc1ccccc1)C(=O)c1cnc(N2CCN(C(=O)c3c(-c4ccccc4)n(C)c4ccc(C)cc34)CC2)cn1` [Example 125, N-benzyl-N-[(5-{4-[(1,5-dimethyl-2-phenyl-1H-indol-3-yl)carbonyl]piperazin-1-yl}pyrazin-2-yl)carbonyl]aminoethyl acetate], the inhibition at 1 µM (1 μM) is 52%. The inhibition at 3 µM (3 μM) was found to be 91%.
The corresponding values for `CCOC(=O)C1CCCC1NC(=O)/C=C/c1c(-c2ccccc2)n(C)c2ncccc12` (stereo not shown) [Example 126, Ethyl 2-{N-[(2E)-3-(1-methyl-2-phenyl-1H-pyrrolo[2,3-b]pyridin-3-yl)prop-2-enoyl]amino}-1-cyclopentanecarboxylate] are 29% and 86%.

(Values after patent US20050014942A1, “Amide derivatives and drugs” (priority 2001, published 2005).)
